One may read the EC50 as the midpoint of the concentration-response curve.

In patent US10472334B2, “Small molecules for inhibiting male fertility” (The University of North Carolina at Chapel Hill, priority 2014, dated 2019) one finds IC50 and EC50 data, which are given here for three molecules.

Read-outs that look alike come from different tables or passages of the source.

The subject of this assay is human sperm motility. The assay can be described thus: Computer-assisted sperm analysis (CASA) of human sperm motility. It counts as cell-based. The method, then:
In another embodiment, a computer-assisted sperm analysis (CASA) can be used as a live cell compound screen for determining the effect of compounds on human sperm motility. Additionally, to facilitate the IC50 evaluation of compounds using different ejaculates, reducing inter-assay variation due to differences in sperm quality in different semen samples, an index of relative motility inhibition (RMI) was developed.
This is calculated as: RMI=[% motility*VSL]; percentage of motile sperm (% motility) or the percentage of progressively motile sperm (% progressive motility, RPMI) multiplied by the straight-line velocity (VSL); the average velocity measured in a straight line from the beginning to the end of a track in μm/sec.
Normalized RMI can be calculated by dividing the RMI of each experimental condition by its respective DMSO control.
Computer-assisted sperm analysis (CASA) was used as a live cell compound screen for determining the effect of compounds on human sperm motility. Computer-assisted sperm analysis (CASA) was performed using the approach taught in Mitra et al., Biology of Reproduction, Vol. 82, p 491 (2010), to determine the parameters of the control versus compound-treated spermatozoa. The parameters measured are: average pathway velocity (VAP: the average velocity of the smoothed cell path in 1 m/sec), the straight-line velocity (VSL: the average velocity measured in a straight line from the beginning to the end of track in 1 m/sec), the curvilinear velocity (VCL: the average velocity measured over the actual point-to-point track of the cell in 1 m/sec), the lateral head amplitude (ALH: amplitude of lateral head displacement in 1 m), the beat cross-frequency (BCF: frequency of sperm head crossing the sperm average path in Hz), the straightness (STR: the average value of the ratio VSL/VAP in %), and the linearity (LIN: the average value of the ratio VSL/VCL in %). The sperm motility parameters are assessed in pre-warmed (37° C.) two- or four-chambered 20-mm Leja slides, loading 5 μL or 2 μL, respectively, of the samples in each chamber and immediately using CASA. This computerized measuring device included a phase-contrast microscope (Olympus CX41), a camera, a mini-therm stage warmer, an image digitizer, and a computer to store and analyze data. The software used for data analysis is the HTR Ceros 12.3 (Hamilton-Thorne Biosciences). A range of 13 to 20 fields are scanned from each chamber. Progressive cells had to have a minimum of 25 μm/sec VAP and 80% of STR.
To facilitate the IC50 evaluation of compounds using different ejaculates, reducing inter-assay variation due to differences in sperm quality in different semen samples, an index of relative motility inhibition (RMI) was developed. This is calculated as: RMI=[% motility*VSL]; percentage of motile sperm (% motility) or the percentage of progressively motile sperm (% progressive motility, RPMI) multiplied by the straight-line velocity (VSL); the average velocity measured in a straight line from the beginning to the end of a sperm track in μm/sec. Normalized RMI (RPMI) was calculated by dividing the RMI of each experimental condition by its respective DMSO control.
The analysis of sperm motility was carried out with computer-assisted sperm analysis (CASA) (Ceros version 12.3 software; Hamilton-Thorne), using the techniques taught in Mitra et al., Biology of Reproduction, Vol. 82, p 491 (2010).

As for `CCOC(=O)CSc1nc(=O)c(NCC(=O)OC)n[nH]1` [Compound B4, methyl N-{3-[(2-ethoxy-2-oxoethyl)sulfanyl]-5-oxo-2,5-dihydro-1,2,4-triazin-6-yl}glycinate], the IC50 (Homo sapiens, Sperm, read-out: CASA) came out at 11.4 µM.
Turning to `COC(=O)NNc1nc(Nc2ccc(NC(=O)OC)c(O)c2)nc(SCC(C)=O)n1` [EP012], the IC50 (Homo sapiens, Sperm, FIG. 10, RMI using % progressive motility, read-out: IC50 in terms of progressive motility) is around 3.4 µM.

B1: SEMG1: semenogelin protein that binds EPPIN and inhibits progressive motility of ejaculate spermatozoa (protein, UniProt P04279 24-462, looked up)
Semenogelin-1: QKGGSKGRLPSEFSQFPHGQKGQHYSGQKGKQQTESKGSFSIQYTYHVDANDHDQSRKSQQYDLNALHKTTKSQRHLGGSQQLLHNKQEGRDHDKSKGHFHRVVIHHKGGKAHRGTQNPSQDQGNSPSGKGISSQYSNTEERLWVHGLSKEQTSVSGAQKGRKQGGSQSSYVLQTEELVANKQQRETKNSHQNKGHYQNVVEVREEHSSKVQTSLCPAHQDKLQHGSKDIFSTQDELLVYNKNQHQTKNLNQDQQHGRKANKISYQSSSTEERRLHYGENGVQKDVSQSSIYSQTEEKAQGKSQKQITIPSQEQEHSQKANKISYQSSSTEERRLHYGENGVQKDVSQRSIYSQTEKLVAGKSQIQAPNPKQEPWHGENAKGESGQSTNREQDLLSHEQKGRHQHGSHGGLDIVIIEQEDDSDRHLAQHLNNDRNPLFT
With B1, the IC50 (FIGS. 3 and 4, read-out: IC50, CASA, RMI (relative motility)) is around 9 µM. Further, the EC50 (calculated EC50 value, read-out: EC50 for inhibiting sperm motility) was 8.8 µM.
